Measured values from US6878388B1, “Vanadium compounds for treating proliferative cell disorders” (Parker Hughes Institute, priority 2000, dated 2005).

Experiments:
[1] = test system: MDA-MB-231 cells; assay: In vitro invasion assay, Matrigel-coated Boyden chambers, MDA-MB-231; type: cell-based, human; conditions: 24 h preincubation, 3 experiments, read-out: Mean IC50 inhibition of invasion through Matrigel matrix
Method: Tumor invasion of the basement membrane is a crucial step in the complex multistage process that leads to metastatic spread. Tumor cells cross the basement membrane as they initially invade the lymphatic or vascular beds during dissemination and as they penetrate their target tissues. […]
Invasion of cancer cells treated with [VO(SO4)(Me2-Phen)2] was assayed using Matrigel-coated Costar 24-well transwell cell culture chambers (“Boyden chambers”) with 8.0-μm-pore polycarbonate filter inserts as described previously (Narla et al., Clin Cancer Res, 4: 2463-2471, 1998; Ghosh et al., Anticancer Drug Des, 14: 403-410, 1999; Albini et al., J Cell Biol, 105: 1867-1872, 1987). […] The cells were trypsinized, washed twice with serum-free medium containing BSA, counted and resuspended in a serum-free medium at 1×10^5 cells/ml. […] The invasive cells that migrated to the lower side of the filter were fixed, stained with Hema-3 solution and counted under a light microscope. Five to 10 random fields per filter were counted to determine the invasive fraction. The invasive fractions of cells treated with [VO(SO4)(Me2-Phen)2] were compared to those of DMSO-treated control cells and the percent inhibition of invasiveness was determined. […]

[2] = test system: U373 glioblastoma cell spheroids; assay: Spheroid migration assay; type: cell-based, human; conditions: for inhibition of tumor cell migration from the spheroids / migration distance: U373 spheroids; for migration distance: 48 h (DMSO control 745±29 μm)
Method: Dissociation and migration are the initial steps for infiltration of tumor cells into the surrounding tissue (Pilkington et al., Anticancer Res., 17: 4107-4109, 1997; Giese et al., Neurosurgery, 39: 235-252, 1996; Chintala et al., Front Biosci, 1: d324-39, 1996). Migration of brain tumor cells was monitored using U373 glioblastoma cell spheroids, as described previously (Narla et al., Clin Cancer Res, 4:2463-2471, 1998). Glioblastoma cell spheroids were cultured in 100 mm^2 tissue culture plates precoated with 0.75% agar prepared in MEM supplemented with 10% fetal bovine serum. The cells (5×10^6 cells) were suspended in the medium, seeded onto agar-coated plates and cultured for 5-7 days at 37° C. Spheroids with a diameter of 200-400 μm were selected for use in further experiments. For the migration experiments, the selected spheroids were incubated for 2 hours at 37° C. in serum-free medium containing [VO(SO4)(Me2-Phen)2] in concentrations ranging from 1 μM to 25 μM. The [VO(SO4)(Me2-Phen)2]-treated and vehicle control (DMSO, 0.1%) spheroids were transferred onto fibronectin-coated coverslips (Becton Dickinson, Bedford, Mass.) and placed in 6-well plates containing the same concentrations of [VO(SO4)(Me2-Phen)2] or DMSO in serum-free medium. Spheroids were then kept in a humidified 5CO2 incubator at 37° C. for 48 hours. A total of 4-6 spheroids were used for each concentration. Following the 48 hours incubation period, the spheroids were fixed and stained with Hema-3 solutions and mounted onto glass slides. The distance of tumor cell migration from the spheroid was measured using an ocular micrometer and a transmitted light microscope.
Spheroids measuring 259.2±41.9 μm in diameter were incubated with [VO(SO4)(Me2-Phen)2] or DMSO on fibronectin-coated coverslips. The U373 gioblastoma cells incubated with DMSO rapidly migrated to a distance 745±29 μm away from the spheroid.

For `Cc1ccnc2c1ccc1c(C)ccnc12.Cc1ccnc2c1ccc1c(C)ccnc12.O=S(=O)([O-])[O-].[O]=[V+2]` [[VO(SO4)(Me2-Phen)2], bis(4,7-dimethyl-1,10-phenanthroline) sulfatooxovanadium (IV)], which IC50 [1] is on record?
Its IC50 is 0.6 ± 0.3 µM.

What about the “inhibition of tumor cell migration from the spheroids” value ([2]; 1 μM, 48 h) of the same molecule?
The value was 58.3±7.3%.

What about the migration distance ([2]; 1 μM) of the same molecule?
The migration distance was 311.1±54.4 μm.

What about the “inhibition of tumor cell migration from the spheroids” value ([2]; 2 μM, 48 h) of the same molecule?
Its value is 71.2±3.4%.

And the migration distance ([2]; 2 μM)?
Its migration distance is 214.9±25.7 μm.

What about the IC50 ([2]; U373 spheroids on fibronectin-coated coverslips, 48 h, read-out: IC50 inhibition of tumor cell migration) of the same molecule?
Its IC50 is 1.4 ± 0.2 µM.
